Assay [1] deals with inner and outer hair cells of the cochlea. Kind of assay: Hair cell counts, delayed dosing after noise trauma. It is filed as in vivo, guinea pig. As for the experimental part:
Guinea pigs were exposed to 120 dB, 4 kHz noise for 6 hr. The compound of Formula II was administered beginning 2 hours to 1 day prior to noise trauma, or 1 day after noise trauma, or 4 days after noise trauma. Dosing continued for 2 weeks after noise exposure. As described above, cochleas were prepared and numbers of preserved and lost inner hair cells (IHCs) and outer hair cells of different rows (OHC1, OHC2, OHC3) were counted 2 weeks post noise trauma.

The test system of assay [2] is outer sensory hair cells of the organ of Corti. Kind of assay: Cytocochleogram counts of lost outer sensory hair cells after noise trauma (Example 1). It is filed as in vivo, guinea pig. The settings on record: day 21. As for the experimental part:
Baseline hearing of 8 pigmented guinea pigs (200-300 g) was tested by ABR as described below. ABR is a measure of hearing function. Four animals were treated with daily subcutaneous (s.c.) injections of the compound of Formula II, 1 mg/kg, starting 24 hours prior to noise trauma and lasting until 21 days after exposure to the noise trauma. Four animals served as controls and received only vehicle (the fourth animal died under anaesthesia). All the animals were exposed to traumatic octave band noise, center frequency 4.0 kHz, 125 dB SPL (sound pressure level) for 105 min.
After the treatment period of 21 days and measurement of ABRs, the animals were sacrificed and the temporal bones fixed by 4% PFA (paraformaldehyde) through perilymphatic perfusion. The left cochleas were dissected for surface specimens and the number of sensory hair cells in each auditory organ was evaluated by cytocochleograms. The upper halves of the cochleas were processed for cytocochleograms without embedding by staining cochlear whole mounts with rhodamine phalloidine (Molecular Probes, Eugene, Ore.) in PBS containing 0.25% Triton X-100 overnight at 4° C and mounted in Vectashield (Vector). Phalloidin is a specific marker for cellular F-actin. Basal halves of the cochleas were embedded in
Epon and processed for cytocochleograms. Selected sections of Epon-embedded cochlear turns were processed for fine structural study by electron microscopy.

For assay [3], the system named is JNK signaling cascade (JNK and c-Jun phosphorylation). Briefly: Phospho-JNK and phospho-c-Jun immunostaining in neomycin-exposed cochlear explants. In kind it is cell-based, rat. The conditions noted are these: 500 nM Formula II coincubated with neomycin; n=5 explants. As for the experimental part:
Six, 12 and 24 hr after adding 100 μM neomycin to the medium, cochlear cultures were fixed with 4% paraformaldehyde in PBS for 30 min. The specimens were prepared for 5 um-thick paraffin sections. They were stained with a TUNEL-kit, mounted in Vectashield containing DAPI nuclear counterstain (Vector, Burlingame, Calif.), and viewed under an Olympus Provis microscope (Tokyo, Japan) using epifluorescence. In addition to TUNEL-staining, DNA fragmentation was verified under UV illumination using DAPI counterstain.
Adjacent sections were immunostained with a polyclonal phospho-c-Jun antibody (Ser73, 1:500; New England Biolabs, Beverly, Mass.) and a polyclonal phospho-JNK antibody (Thr183/Tyr185, 1:250 dilution; New England Biolabs). The phospho-JNK antibody detects the dually phosphorylated isoforms of JNK 1, 2 and 3. The specificity of the phospho-specific antibodies was verified by Western blotting using sorbitol-treated PC 12 cells. Phospho-JNK antibody recognized the phosphorylated p54/p46 JNK and phospho-c-Jun antibody the phosphorylated p46 c-Jun in sorbitol-treated, but not in untreated PC 12 cells. […] Calbindin immunoreaction was detected using the ABC method and diaminobenzidine without tyramide signal amplification, and the sections were lightly counterstained with 1% toluidine blue. […]

Assay [4] deals with vestibular hair cells (ampullary cristae). Kind of assay: Hair cell counts in ampullary cristae after gentamicin treatment. In kind it is in vivo, guinea pig. How it is done: (§1) Two experimental groups were formed. Group 1 guinea pigs served as control and were treated with gentamicin only. The animals were injected s.c. with gentamicin at 120 mg/kg body weight, once daily for 14 days. Three guinea pigs (yielding a total of 6 inner ears) were included in this group. The animals were decapitated 30 days after the start of the injections.
(§2) Group 2 guinea pigs were treated with gentamicin plus Formula II. The animals were injected s.c. with GM at 120 mg/kg body weight, plus Formula II at 1 mg/kg, once daily for 14 days. Formula II treatment started 1 day before GM injections. Formula II treatment was continued for 28 or 29 days. Four guinea pigs (8 inner ears) were included in this group. The animals were decapitated 30 days after the start of GM injections.
Guinea pigs were decapitated under deep anaesthesia and the inner ears were perilymphatically fixed and immersed with 2.5% glutaraldehyde in 0.1 M phosphate buffer (pH 7.4), postfixed with 1% osmium tetroxide, and embedded in Epon. Cochleas were processed for cytocochleograms (Ylikoski, Acta Otolaryngol (Stockh) Suppl 326:5-20, 1975). The separately dissected and Epon-embedded vestibular organs were cut for 1 μm-thick sections. Every 25th section was collected onto slides and stained with 1% toluidine blue. […] Two control (GM-treated) and 3 Formula II plus GM-treated ampullae were used for analysis. The presence of cell nuclei in the sensory layer (upper half) of the sensory epithelium was regarded as the presence of hair cells. Supporting cell nuclei were clearly distinguished from hair cells by their position (lower part) in the epithelium and by toluidine blue that stains the hair cells weaker than the supporting cells. Hair cell loss was measured by comparing the number of hair cell nuclei in the sensory layer to the number of […].

Assay [5] relates to gentamicin-treated guinea pigs. Kind of assay: ABR threshold shifts after gentamicin treatment. In kind it is in vivo, guinea pig. The conditions noted are these: gentamicin 120 mg/kg s.c. 14 days plus Formula II 1 mg/kg daily; day 30; n=8; P<0.01. How it is done:
Adult Dunkin-Hartley female guinea pigs (weight 300-400 g) were used. They were given free access to water and a regular guinea pig diet. The animals were given 1 week of adjustment before baseline ABR recordings and gentamicin (GM) treatment.
as §1, §2
ABRs were determined 1 day before GM injections (baseline values) and at day 30 after the start of the GM injections. […] Thresholds were determined at frequencies 2, 4, 8, 16 and 32 kHz from a set of responses at varying intensities with 5 dB intervals and 1000 sweeps near the threshold. ABRs were measured with System II hardware and BioSig software. […]

[6] abbreviates: single animal, 1 mg/kg s.c. daily, noise 125 dB SPL 105 min, 1 mg/kg.

“And” between values parts separate entries of the source, which are not always exact repeats. Equal entries are not always repeated.

Regarding `CCSCc1ccc2c(c1)c1c3c(c4c5cc(CSCC)ccc5n5c4c1n2C1C[C@](O)(C(=O)OC)[C@]5(C)O1)CNC3=O` [Formula II], the “OHC loss total (%)” value in assay [1] (1 day delayed dosing, single cochlea) was 6.4% and 3.7% and 1.2% and 2.0% and 5.4% and 2.4%. For the same compound, the “loss of hair cells versus control cochleas” value in assay [1] (following exposure to noise, 1 day delayed P<0.01, 4 day delayed P<0.05) is “less loss of hair cells”. Besides, in assay [2] (mean of 4 Formula II animals), the “% OHC LOST, MEAN” value came to 6.1%; the “LOST OUTER SENSORY CELLS (OHC): OCH1, MEAN” value was found to be 133; the “LOST OUTER SENSORY CELLS (OHC): OCH2, MEAN” value is 107; the “LOST OUTER SENSORY CELLS (OHC): OCH3, MEAN” value is given as 143. Besides, the “TOTAL OHC LOST, MEAN” value in assay [2] (mean of 4 Formula II animals) is 383. Besides, in assay [2] (setting [6]), the “% OHC LOST” value is 3.1% and 0.8% and 1.4% and 19.0%; the “LOST OUTER SENSORY CELLS (OHC): OCH1” value was 90 and 19 and 36 and 356; the “LOST OUTER SENSORY CELLS (OHC): OCH2” value is 25 and 3 and 18 and 381; the “LOST OUTER SENSORY CELLS (OHC): OCH3” value is 71 and 27 and 46 and 428. Further, the “TOTAL OHC LOST” value in assay [2] (setting [6]) was 186 and 49 and 100 and 1195. Further, the “induction of JNK and c-Jun phosphorylation in hair cells” value in assay [3] was “prevented”. Also, in assay [4] (GM + Formula II, single ampulla, all sections counted), the “Total number of hair cells” value was 518 and 328 and 620. In addition, in assay [4] (GM + Formula II, single ampulla, decimal comma), the “Hair cells per frame” value was 1,9 and 2,2. Further, the “protective effect in the ampullae” value in assay [4] (gentamicin 120 mg/kg plus Formula II 1 mg/kg, relative hair cell loss, n=3 ampullae) is reported as 70%. In addition, the “ABR threshold shift versus control cochleas (GM only)” value in assay [5] is listed as “less threshold shift at all frequencies tested”.

The record behind these values is patent publication US6448283B1, “Methods for preventing/treating damage to sensory hair cells and cochlear neurons” (Cephalon, Inc., priority 1998, dated 2002).
